A word on the IC50: it is the point on the concentration scale where inhibition reaches its midpoint.

The values that follow come from patent US10233186B2, “Inhibitors of activin receptor-like kinase” (BLUEPRINT MEDICINES CORPORATION, priority 2016, dated 2019).

Test [1] has as its target T1, ALK2 R206H (GST-tagged mutant ALK2) (Homo sapiens, UniProt Q04771, R206H).
T1 construct: purchased Carna Bioscience or ThermoFisher 09-148 or PV6232
T1 sequence (Q04771 21-509 R206H): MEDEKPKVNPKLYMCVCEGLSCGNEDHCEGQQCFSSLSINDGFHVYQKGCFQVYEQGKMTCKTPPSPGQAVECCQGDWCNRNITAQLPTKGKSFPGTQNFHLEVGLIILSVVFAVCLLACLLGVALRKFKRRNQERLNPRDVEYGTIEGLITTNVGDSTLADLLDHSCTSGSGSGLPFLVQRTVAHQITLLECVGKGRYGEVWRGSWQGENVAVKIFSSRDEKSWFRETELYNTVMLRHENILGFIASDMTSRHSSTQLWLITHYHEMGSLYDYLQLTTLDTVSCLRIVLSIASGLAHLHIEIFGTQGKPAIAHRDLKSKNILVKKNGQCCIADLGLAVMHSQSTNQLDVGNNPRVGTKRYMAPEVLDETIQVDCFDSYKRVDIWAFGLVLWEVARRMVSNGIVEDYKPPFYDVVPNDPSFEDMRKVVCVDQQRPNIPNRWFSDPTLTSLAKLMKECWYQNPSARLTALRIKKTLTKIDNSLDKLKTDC
The test can be described thus: ALK binding assay (LANTHASCREEN TR-FRET competitive binding, displacement of Kinase Tracer 178). Conditions: ALK2 R206H, LANTHASCREEN TR-FRET competitive binding; read-out: Binding Assay (IC50).

The target in another test is T2, human ALK2 R206H (Homo sapiens, UniProt Q04771, R206H).
T2 construct: expressed in transfected cells; host or cells: HEK293 (ATCC CRL1573), lentivirus transduction, blasticidin selection
T2 sequence (Q04771 21-509 R206H): T1 sequence (Q04771 21-509 R206H)
Description: Cell-based ALK2-R206H cell activity assay (Smad1-Ser463/Ser465 phosphorylation by AlphaLISA in HEK293-ALK2-R206H cells). Particulars: read-out: Cell Line (Cell Assay IC50). The procedure, abridged: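 Stable HEK293 cells expressing C-terminally FLAG-tagged human ALK2 R206H (lentiviral, blasticidin-selected) were treated with compounds in 10-point, 3-fold dilutions from 10 μM or 1 μM top, in duplicate. Smad1 Ser463/Ser465 phosphorylation was read by AlphaLISA.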
For orientation: Alpha assays give light when donor and acceptor beads are brought close together.

As to `O=C(C1CC1)N1CCN(c2ccnn3cc(-c4ccc5c(c4)COC54CNC4)cc23)CC1` [Compound 120], the figures for the IC50 (in test [1]; at human ALK2 R206H) were less than 10 nM and 100 to 500 nM, respectively.
As to `N#CC1(c2ccc(-c3cc4c(N5CCN(C(=O)C6CC6)CC5)ccnn4c3)cc2)CCNCC1` [Compound 481], the IC50 is less than 10 nM in test [1] and less than 100 nM at human ALK2 R206H.
Consider `CC(C)N1CCC(c2ccc(-c3cc4c(N5CCN(C(=O)[C@H]6C[C@](C)(O)C6)CC5)ccnn4c3)cc2)CC1` [Compound 420], for which the IC50 in test [1] was less than 10 nM; at human ALK2 R206H it was less than 100 nM.
In the same order, the values of `CC(C)NC(=O)N1CCN(c2ccnn3cc(-c4ccc([C@@H]5CCN(C(C)C)C5)cc4)cc23)CC1` [Compound 531] are less than 10 nM and less than 100 nM.
In the same order, the values of `CC(C)N1CCC(c2ccc(-c3cc4c(N5CCN(C(=O)OC6CCC6)CC5)ccnn4c3)cc2)CC1` [Compound 621] are less than 10 nM and 100 to 500 nM.
The corresponding values for `COC1(c2ccc(-c3cc4c(N5CCN(C(=O)[C@H]6C[C@H](C#N)C6)CC5)ccnn4c3)nc2)CCN(C2COC2)CC1` [Compound 870] are less than 10 nM and less than 100 nM.
Take `CCOC(=O)N1CCN(c2ccnn3cc(-c4ccc(C5(OC)CCN(C6COC6)CC5)cn4)cc23)CC1` [Compound 834]: the IC50 in test [1] is less than 10 nM; on human ALK2 R206H, less than 100 nM.
In the same order, the values of `CC(C)N1CCC(c2ccc(-c3cc4c(N5CCN(C(=O)O[C@@H]6CCOC6)CC5)ccnn4c3)cc2)CC1` [Compound 666] are less than 10 nM and less than 100 nM.
In the same order, the values of `CCOC1(c2ccc(-c3cc4c(N5CCN(C(=O)OC6COC6)CC5)ccnn4c3)nc2)CCN(C[C@H](C)F)CC1` [Compound 882] are less than 10 nM and less than 100 nM.
Regarding `COC1(c2ccc(-c3cc4c(N5CCN(C(=O)NC(C)C)CC5)ccnn4c3)cc2)CN(C(C)C)C1` [Compound 593], the IC50 in test [1] was less than 10 nM; at human ALK2 R206H, less than 100 nM.
The corresponding values for `CC(C)N1CC[C@H](c2ccc(-c3cc4c(N5CCN(C(=O)N6CC(C#N)C6)CC5)ccnn4c3)cc2)C1` [Compound 368] are less than 10 nM and less than 100 nM.
For the molecule `CC[C@H](C)N1CCC[C@@H](c2ccc(-c3cc4c(N5CCN(C(=O)C6CC6)CC5)ccnn4c3)cc2)C1` [Compound 561], the IC50 in test [1] was less than 10 nM; at human ALK2 R206H it was less than 100 nM.
In the same order, the values of `CC[C@@H](C)N1CCC[C@@H](c2ccc(-c3cc4c(N5CCN(C(=O)C6CC6)CC5)ccnn4c3)cc2)C1` [Compound 562] are less than 10 nM and less than 100 nM.
In the same order, the values of `CC(C)N1CCC(c2ccc(-c3cc4c(N5CCN(C(=O)OC6COC6)CC5)ccnn4c3)cc2)(C(F)(F)F)CC1` [Compound 747] are less than 10 nM and less than 100 nM.
As for `O=C(C1CCC1)N1CCN(c2ccnn3cc(-c4ccc(C5(F)CCCNC5)cc4)cc23)CC1` (stereo not drawn) [Compound 229], the values for the IC50 (in test [1]; at human ALK2 R206H) were less than 10 nM and less than 100 nM, respectively.
As to `CC(C)NC(=O)N1CCN(c2ccnn3cc(-c4ccc([C@H]5CCCN(C(C)C)C5)cc4)cc23)CC1` [Compound 578], the values for the IC50 (in test [1]; on human ALK2 R206H) were less than 10 nM and less than 100 nM, respectively.
The corresponding values for `CO[C@@]1(c2ccc(-c3cc4c(N5CCN(C(=O)OC6COC6)CC5)ccnn4c3)cc2)CCCNC1` [Compound 600] are less than 10 nM and less than 100 nM.
Turning to `CCOC(=O)N1CCN(c2ccnn3cc(-c4ccc([C@@]5(OC)CCCNC5)cn4)cc23)CC1` [Compound 778], the IC50 is less than 10 nM in test [1] and less than 100 nM on human ALK2 R206H.
In the same order, the values of `[2H]C([2H])([2H])C([2H])([2H])OC(=O)N1CCN(c2ccnn3cc(-c4ccc([C@]5(OCC)CCCNC5)cn4)cc23)CC1` [Compound 794] are less than 10 nM and less than 100 nM.
The corresponding values for `CC(C)N1CCC(c2ccc(-c3cc4c(N5CCN(C(=O)OC(C)(C)C)CC5)ccnn4c3)cc2)CC1` [Compound 632] are less than 10 nM and 100 to 500 nM.
In the same order, the values of `CC(C)(C#N)c1ccc(-c2cc3c(N4CCN(C(=O)C5CC5)CC4)ccnn3c2)cc1` [Compound 110] are 10 to 50 nM and 100 to 500 nM.
For `CCN1CCC(c2ccc(-c3cc4c(N5CCN(C(=O)OC6CCC6)CC5)ccnn4c3)cc2)CC1` [Compound 322], the half-inhibitory concentration (IC50) is less than 10 nM in test [1] and less than 100 nM at human ALK2 R206H.
In the same order, the values of `CCOC1(c2ccc(-c3cc4c(N5CCN(C(=O)OC6COC6)CC5)ccnn4c3)nc2)CCOCC1` [Compound 821] are less than 10 nM and less than 100 nM.
In the same order, the values of `CCOC1(c2ccc(-c3cc4c(N5CCN(C(=O)NC(C)C)CC5)ccnn4c3)nc2)CCN(C(C)C)CC1` [Compound 715] are less than 10 nM and less than 100 nM.
The corresponding values for `CC(C)N1CC[C@H](c2ccc(-c3cc4c(N5CCN(C(=O)[C@H]6C[C@H](C#N)C6)CC5)ccnn4c3)cc2)C1` [Compound 366] are less than 10 nM and less than 100 nM.
For the molecule `COC1(c2ccc(-c3cc4c(N5CCN(C(=O)C6CC6)CC5)ccnn4c3)cc2)CCN([C@@H](C)COC(F)F)CC1` [Compound 883], the figures for the 50% inhibitory concentration (IC50) (in test [1]; at human ALK2 R206H) were less than 10 nM and less than 100 nM, respectively.
For `COCC(C)N1CCC(OC)(c2ccc(-c3cc4c(N5CCN(C(=O)C6CC6)CC5)ccnn4c3)nc2)CC1` (stereo not drawn) [Compound 710], the IC50 in test [1] was less than 10 nM; at human ALK2 R206H, less than 100 nM.
`COC1(c2ccc(-c3cc4c(N5CCN(C(=O)C6CC6)CC5)ccnn4c3)c(F)c2)CCN(C(C)C)CC1` [Compound 682]: the IC50 in test [1] is less than 10 nM; at human ALK2 R206H it was less than 100 nM.
Consider `COC1(c2ccc(-c3cc4c(N5CCN(C(=O)NC(C)C)CC5)ccnn4c3)cc2)CCN([C@H](C)COC(F)F)CC1` [Compound 893], for which the IC50 in test [1] is less than 10 nM; on human ALK2 R206H, less than 100 nM.
The corresponding values for `CC(C)N1CCC[C@@H](c2ccc(-c3cc4c(N5CCN(C(=O)[C@H]6C[C@H](C#N)C6)CC5)ccnn4c3)cc2)C1` [Compound 408] are less than 10 nM and less than 100 nM.
For the molecule `O=C(OC1COC1)N1CCN(c2ccnn3cc(-c4ccc([C@@H]5CCCN5)cn4)cc23)CC1` [Compound 476], the half-maximal inhibitory concentration (IC50) in test [1] was less than 10 nM; on human ALK2 R206H it was less than 100 nM.
As to `O=C(C1CC1)N1CCN(c2ccnn3cc(-c4cnn(C5CNC5)c4)cc23)CC1` [Compound 100], the IC50 in test [1] was less than 10 nM; at human ALK2 R206H, 100 to 500 nM.
The corresponding values for `CC(C)N1C[C@H](c2ccc(-c3cc4c(N5CCN(C(=O)C6CC6)CC5)ccnn4c3)cc2)C[C@@H]1C` [Compound 507] are less than 10 nM and less than 100 nM.
Take `CCO[C@@]1(c2ccc(-c3cc4c(N5CCN(C(=O)NC(C)C)CC5)ccnn4c3)cc2)CCN(C(C)C)C1` [Compound 677]: the IC50 in test [1] is less than 10 nM; on human ALK2 R206H it was less than 100 nM.
Consider `CC(C)(O)C(N)c1ccc(-c2cc3c(N4CCN(C(=O)C5CC5)CC4)ccnn3c2)cc1` (stereo not drawn) [Compound 761], for which the results for the IC50 (in test [1]; at human ALK2 R206H) were less than 10 nM and less than 100 nM, respectively.
The corresponding values for `CC(C)NC(=O)N1CCN(c2ccnn3cc(-c4ccc(C5(F)CCN(C(C)C)CC5)cc4)cc23)CC1` [Compound 648] are less than 10 nM and less than 100 nM.
On to `CCN1CCN(c2ccc(-c3cc4c(N5CCN(C(=O)N6CC(O)C6)CC5)ccnn4c3)cc2)CC1` [Compound 344], for which the IC50 lay within 10 to 50 nM in test [1] and 100 to 500 nM on human ALK2 R206H.
As for `O=C(C1CC1)N1CCN(c2ccnn3cc(-c4ccc(N5CCN6CCOCC6C5)cc4)cc23)CC1` (stereo not drawn) [Compound 315], the IC50 in test [1] was 10 to 50 nM; on human ALK2 R206H it was 100 to 500 nM.
The corresponding values for `COC1(c2ccc(-c3cc4c(N5CCN(C(=O)C6CC6)CC5)ccnn4c3)nc2)CCN(C2COC2)CC1` [Compound 660] are less than 10 nM and less than 100 nM.
As for `COC1(c2ccc(-c3cc4c(N5CCN(C(=O)OC6COC6)CC5)ccnn4c3)cc2)CCOCC1` [Compound 799], the IC50 was less than 10 nM in test [1] and less than 100 nM at human ALK2 R206H.
In the same order, the values of `CC(C)N1CCc2nc(-c3cc4c(N5CCN(C(=O)C6CC6)CC5)ccnn4c3)sc2C1` [Compound 191] are less than 10 nM and less than 100 nM.
In the case of `CCOC1(c2ccc(-c3cc4c(N5CCN(C(=O)OC6COC6)CC5)ccnn4c3)nc2)CCNCC1` [Compound 647], the IC50 in test [1] was less than 10 nM; on human ALK2 R206H, less than 100 nM.
In the same order, the values of `CCN1CC2(C1)CN(c1ccc(-c3cc4c(N5CCN(C(=O)[C@@H]6C[C@H]6F)CC5)ccnn4c3)cc1)C2` [Compound 332] are less than 10 nM and less than 100 nM.
In the case of `CC(C)NC(C)(C)c1ccc(-c2cc3c(N4CCN(C(=O)C5CC5)CC4)ccnn3c2)cc1` [Compound 473], the figures for the IC50 (in test [1]; at human ALK2 R206H) were less than 10 nM and less than 100 nM, respectively.
In the case of `CC(C)N1CC(O)(c2ccc(-c3cc4c(N5CCN(C(=O)C6CCC(C#N)CC6)CC5)ccnn4c3)cc2)C1` (stereo not drawn) [Compound 706], the IC50 is less than 10 nM in test [1] and less than 100 nM on human ALK2 R206H.
